“And” between values parts separate entries of the source, which are not always exact repeats. Equal entries are not always repeated. Where two headings read alike, the source gives them in different places.

Series [1] deals with cognitive functions of women aged 65 years or more. The procedure: (§1) Elderly women living in a community (n=13, 68.0±3.0 years old, body weight: 66.9±10.3 kg, height: 161.1±5.8 cm) volunteered for participants for the present open-label preliminary experiment (registered in ClinicalTrials.gov, NCT02830854). Individuals with a serious disease or a mental disease had been excluded as they met the exclusion criteria. This study was conducted according to the guideline of the Declaration of Helsinki, and the local ethics committee approved the protocol of the present clinical study. The participants all gave informed consent, and were each asked to keep their usual lifestyle and take meals as usual during the study. […] Mini Mental State Examination (MMSE) scores before the initiation of the study and 4 weeks thereafter were used to evaluate the therapeutic effect. In addition, assessment of other cognitive ability markers and evaluation of side effects were conducted based on the results before the initiation of the study and 4 weeks thereafter. The cognitive functions of the participants were evaluated by using the MMSE and the Alzheimer's Disease Assessment Scale-Cognitive subscale (ADAS-Cog). The MMSE is a 30-point questionnaire widely used in clinical practice to determine the degree of cognitive impairment of an elderly individual. The ADAS-Cog is a method, consisting of 11 tasks, of assessing cognitive abilities, and determines memory impairment, language impairment, praxis impairment, attention deficits, and other cognitive abilities to test for dementia. In addition to the assessments, the participants were asked to report adverse events during the study through self-assessment or an open-ended questionnaire on side effects (e.g., queasy feeling, headache). Statistical significance was determined by using a Wilcoxon signed-rank test (before the initiation of the study vs. 4 weeks thereafter). If p≤0.05 was satisfied, the result was considered statistically significant.

For series [2] the following is noted: 4% hydrogen gas 15 minutes per day over 4 weeks. The procedure: as §1
For series [3], the system named is patients with mild to moderate dementia of the Alzheimer's type. The note with it: 10 mg donepezil, 24-week (6-month) administration; rating score 0 to 70 points; cited from earlier work.

Consider `[HH]` [H2, hydrogen gas], for which the “ADAS-Cog Language reproduction test After 4 weeks” value in series [1] (4% H2 inhaled 15 minutes per day over 4 weeks, baseline 3.6 ± 1.0) came out at 8.1 ± 1.2. Also, the “ADAS-Cog Language recognition After 4 weeks” value in series [1] (4% H2 inhaled 15 minutes per day over 4 weeks, baseline 4.2 ± 3.2) was determined as 1.1 ± 1.0. In series [1] (after 4 weeks vs baseline), the “ADAS-Cog Language recognition % change” value is given as −40.1% and the “ADAS-Cog Language reproduction test % change” value was found to be 140.0%. Also, the “MMSE Total score % change” value in series [1] (after 4 weeks vs baseline, 4% H2 inhaled 15 minutes per day) was 13.7% and 14.2%. In series [1] (among 13 women, after administration), the “Number of women whose MMSE scores increased” value is given as 12. For the same compound, in series [1] (conversion formula BMC Neurol. 2002, 2:6), the “Improvement in ADAS-Cog converted from MMSE (Improvement in MMSE×2.33)” value is 8.16 points. In series [1] (correctly executed in both tests (baseline and after 4 weeks)), the “Other 9 items in ADAS-Cog scoring, score” value is listed as 0. Besides, in series [1] (elderly women with mild cognitive impairment, 4% hydrogen gas 15 minutes per day over 4 weeks), the “Cognitive functions (result in words)” value is recorded as “improved to normal levels”. Besides, the “Improvement in the MMSE” value in series [1] (inhalation of hydrogen gas for a month) worked out at 3.50 points. The “Adverse events / side effects associated with inhalation” value in series [2] is “no sign of side effects”. Moreover, the “Adverse events / side effects associated with inhalation” value in series [2] (listed as hydrogen gas) is given as “no adverse event”.
With `COc1cc2c(cc1OC)C(=O)C(CC1CCN(Cc3ccccc3)CC1)C2` (stereo not shown) [donepezil], the “Reduction of ADAS-Cog score from the score at initiation of administration” value in series [3] is “approximately 1.4 points”.

The record behind these values is US20230226103A1, “COMPOSITION FOR TREATING AND/OR PREVENTING COGNITIVE IMPAIRMENT OR DEMENTIA” (MiZ Company Limited, priority 2018, published 2023).
